Measurements taken from patent US6596500B1, “Binding of retinoids to M6P/IGF-II receptor” (The General Hospital Corporation, priority 1998, dated 2003).
Entries after “also recorded” stand apart in the source; their conditions may differ.

Legend:
[1] = biological target: T1, M6P/IGF2R (300 kDa protein) (Rattus norvegicus, UniProt G3V824); test: [3H]RA photoaffinity labeling of the 300 kDa protein; assay type: binding; details: for Inhibition of [3H]RA photolabeling/binding to M6P/IGF2R by nonradioactive competitor: 25- to 50-fold molar excess (50 μM) competitor added before photolysis
T1 construct: about 100 μg of proteins of membrane preparations or serum; from tissue; host or cells: membrane preparations of cultured neonatal Sprague-Dawley rat cardiac myocytes
Protocol: Photoaffinity Labeling Photoaffinity labeling was performed essentially according to the methods described in Bernstein et al., 1995, Proc. Natl. Acad. Sci. USA 92:654-658. […] After the ethanol has been evaporated with nitrogen, about 100 μg of proteins of membrane preparations or serum [serum proteins were first concentrated using a Biomax-100K Centrifugal Filter Device (Millipore)] were then added to each tube. The final volume was adjusted to 100 μl with 50 mM Tris buffer (pH 7.4) containing protease inhibitors (5 mM EDTA, 5 mM EGTA, 0.1 mM phenylmethylsulfonyl fluoride, 0.05% NaN3, 20 μg/ml aprotinin, 10 μg/ml benzamidine and 12.5 μg/ml chymostatin) and 50 μM butylated hydroxytoluene (a radical scavenger, used to minimize the non-specific labeling) for a final concentration of 1 μM labeled retinoic acid. The samples were incubated at room temperature with agitation for 1 hour in the dark. The samples were exposed to an intense 365-nm UV light source (Model B 100AP, UPland, CA) for 7 min. […] To remove the non-covalently bound ligands, the photolabeled samples were extracted with chloroform/methanol (2:1), or washed once by centrifugation for membrane samples only).
Fluorography The resultant protein pellets were dissolved in SDS sample buffer containing 5% β-mercapto-ethanol and heated at 100° C. for 5 min. These samples were then run on 7% polyacrylamide gels (30:0.2, acrylamide/bisacrylamide ratio), using conventional SDS/PAGE techniques. After electrophoresis, the gels were stained with Coomassie blue, soaked in Amplifier (Amersham, Life Science) for 30 minutes, dried by a vacuum gel dryer and then exposed to Hyperfilm-TM X-ray films (Amersham, Life Science) at […] for 1-3 days.

M6P/IGF-II receptor = biological target: T2, M6P/IGF-II receptor (Rattus norvegicus, UniProt G3V824); test: Internalization of 125I-IGF-II in cultured cardiac myocytes; assay type: cell-based; details: RA 2 μM; 2 h
T2 construct: cultured neonatal rat cardiac myocytes, which were known to express high levels of the M6P/IGF-II receptor; endogenous in cells; host or cells: primary neonatal rat cardiac myocytes
Protocol: FIG. 5 is a histogram summarizing data on the effect of RA on the internalization of ^125I-IGF-II. Assay was performed by incubating cells at […] for 2 h in media (150 mM NaCl, 5 mM KCl, 1.2 mM MgSO4, 8 mM glucose, 100 mM Hepes, pH 7.6) or F-10 culture medium containing ^125I-IGF-II (0.5 ng/ml) with or without excess unlabeled IGF-II (2 μg/ml), in the presence or absence of 2 μM RA. Following the incubation, the cells were washed three times with ice-cold PBS, and cell-associated radioactivity was determined by a gamma counter.
The primary functions of the Man-6-P/IGF-II receptor are to mediate endocytosis of extracellular M6P-containing proteins (e.g. lysosomal enzymes) and IGF-II and to sort newly synthesized lysosomal enzymes. Therefore, an important question raised by the direct interaction of RA with M6P/IGF2R is whether RA influences these functions of the receptor. To answer this question, we examined the effect of RA on endocytosis of exogenous β-glucuronidase and ^125I-IGF-II and intracellular activity of acid phosphatase in cultured neonatal rat cardiac myocytes, which were known to express high levels of the M6P/IGF-II receptor (Nissley et al., 1993, Mol. Reprod. Dev. 35:408-413). […] This indicated an increased sorting of lysosomal enzymes) (FIGS. 4-6). […]

[2] = test system: neonatal rat cardiac myocytes; test: Cellular acid phosphatase activity in cultured cardiac myocytes; assay type: cell-based; details: RA 2 μM; various times
Protocol: FIG. 6. is a graph summarizing data on the effect of RA on cellular acid phosphatase activity. Cultured neonatal rat cardiac myocytes were treated with 2 μM RA at 37° C. for various time, washed and harvested. Cellular proteins were then solubilized by sonication and acid phosphatase activity was assayed using a Diagnostics Acid Phosphatase kit (Sigma). Dotted line represents control cells. Solid line represents RA-treated cells. Bars represent standard error or the mean (n=4).
The primary functions of the Man-6-P/IGF-II receptor are to mediate endocytosis of extracellular M6P-containing proteins (e.g. lysosomal enzymes) and IGF-II and to sort newly synthesized lysosomal enzymes. Therefore, an important question raised by the direct interaction of RA with M6P/IGF2R is whether RA influences these functions of the receptor. To answer this question, we examined the effect of RA on endocytosis of exogenous β-glucuronidase and ^125I-IGF-II and intracellular activity of acid phosphatase in cultured neonatal rat cardiac myocytes, which were known to express high levels of the M6P/IGF-II receptor (Nissley et al., 1993, Mol. Reprod. Dev. 35:408-413). […] This indicated an increased sorting of lysosomal enzymes) (FIGS. 4-6). […] These effects of RA were not altered in the presence of a protein synthesis inhibitor (0.5 mM cycloheximide) and were not observed in the receptor-negative P388D1 cells. […]

P388D1 cells [3] = test: Cathepsin B distribution in P388D1 cells lacking or overexpressing M6P/IGF2R; assay type: cell-based, mouse
From the text: Intracellular Trafficking Materials Retinoic acid was obtained from Sigma Chem. Co. (St. Louis, Mo.). The synthetic retinoids used (AGN193109, TTNPB) were produced by Allergan Inc. (Irvine, Calif.). Stably-transfected P388D1 cells re-expressing the M6P/IGF2R were provided by Dr. William S. Sly (St. Louis University). The rabbit polyclonal antibody against the rat M6P/IGF-II receptor was a gift from Dr. R.G. MacDonald (University of Nebraska). The rabbit polyclonal anti-rat cathepsin B antibody was purchased from Upstate Biotechnology (N.Y.). The FITC-conjugated goat anti-rabbit IgG was obtained from Jackson ImmunoResearch Laboratories (West Grove, Pa.). Neonatal rat cardiac fibroblasts were prepared from 1-day-old rats using the Neonatal Cardiomyocyte Isolation System (Worthington) and grown on glass coverslips in F-10 nutrient mixture with 10% horse serum and 5% fetal bovine serum (FBS). Cells were used in experiments after 3-5 days of culture. Mouse macrophage P3,88D1 cells were cultured in minimum essential medium-a (MEM-α) supplemented with 10% FBS.
Cells were then fixed with 4% paraformaldehyde in phosphate-buffered saline (PBS) for 30 min. The cells were washed in PBS, permeabilized with 0.1% Triton X-100 in PBS for 5 min, and then incubated with either polyclonal anti-rat M6P/IGF2R antibody or anti-rat cathepsin B antibody (diluted 1:200) at room temperature for 1 h. […]

HL-60R cells = test: Growth and apoptosis of HL-60R cells overexpressing M6P/IGF2R; assay type: cell-based, human; details: 1 μM RA; HL-60R cells transfected with M6P/IGF2R cDNA
Protocol: (§1) FIG. 9 is a graph showing the effect of RA treatment on growth (number of viable cells) of HL-60R cells overexpressing M6P/IGF2R protein and HL-60R controls. Open circles, vector control cells without RA treatment; closed circles, vector control cells with 1 μM RA treatment; open squares, overexpressing cells without RA treatment; closed squares overexpressing cells with 1 μM RA treatment.
We examined the M6P/IGF2R-mediated effects of RA in the absence of nuclear RA receptors, by using human cell line HL-60R, which lacks functional nuclear RA receptors. This cell line expresses low levels of M6P/IGF2R protein. We transfected HL-60R cells with a plasmid encoding human M6P/IGF2R, so they overexpressed M6P/IGF2R. Then we assessed their response to RA. […] Apoptosis was assayed using FITC-labeled annexin V staining and flow cytometry.

P388D1 cells [4] = test: Morphology, growth and apoptosis of P388D1 cells overexpressing M6P/IGF2R; assay type: cell-based, mouse; details: for Cell morphology: 1 μM RA for 24 hours
Protocol: as §1, with “10” for “9”, “rate” for “(number”, “P388D1” for “viable cells) of HL-60R”, “P388D1” for “HL-60R”, “triangles,” for “squares,”, “triangles” for “squares”
We examined M6P/IGF2R-mediated effects of RA in mouse macrophage P388D1 cells, which are the best characterized cells that lack the M6P/IGF2R protein.

P388D1 cells [5] = test: RA effects on endocytosis, IGF-II internalization and acid phosphatase in receptor-negative cells; assay type: cell-based, mouse
From the text: The primary functions of the Man-6-P/IGF-II receptor are to mediate endocytosis of extracellular M6P-containing proteins (e.g. lysosomal enzymes) and IGF-II and to sort newly synthesized lysosomal enzymes. Therefore, an important question raised by the direct interaction of RA with M6P/IGF2R is whether RA influences these functions of the receptor. To answer this question, we examined the effect of RA on endocytosis of exogenous β-glucuronidase and ^125I-IGF-II and intracellular activity of acid phosphatase in cultured neonatal rat cardiac myocytes, which were known to express high levels of the M6P/IGF-II receptor (Nissley et al., 1993, Mol. Reprod. Dev. 35:408-413). […] This indicated an increased sorting of lysosomal enzymes) (FIGS. 4-6). […] These effects of RA were not altered in the presence of a protein synthesis inhibitor (0.5 mM cycloheximide) and were not observed in the receptor-negative P388D1 cells. This indicated a direct interaction of RA with the M6P/IGF2R protein.

T1 sequence (G3V824 36-2481): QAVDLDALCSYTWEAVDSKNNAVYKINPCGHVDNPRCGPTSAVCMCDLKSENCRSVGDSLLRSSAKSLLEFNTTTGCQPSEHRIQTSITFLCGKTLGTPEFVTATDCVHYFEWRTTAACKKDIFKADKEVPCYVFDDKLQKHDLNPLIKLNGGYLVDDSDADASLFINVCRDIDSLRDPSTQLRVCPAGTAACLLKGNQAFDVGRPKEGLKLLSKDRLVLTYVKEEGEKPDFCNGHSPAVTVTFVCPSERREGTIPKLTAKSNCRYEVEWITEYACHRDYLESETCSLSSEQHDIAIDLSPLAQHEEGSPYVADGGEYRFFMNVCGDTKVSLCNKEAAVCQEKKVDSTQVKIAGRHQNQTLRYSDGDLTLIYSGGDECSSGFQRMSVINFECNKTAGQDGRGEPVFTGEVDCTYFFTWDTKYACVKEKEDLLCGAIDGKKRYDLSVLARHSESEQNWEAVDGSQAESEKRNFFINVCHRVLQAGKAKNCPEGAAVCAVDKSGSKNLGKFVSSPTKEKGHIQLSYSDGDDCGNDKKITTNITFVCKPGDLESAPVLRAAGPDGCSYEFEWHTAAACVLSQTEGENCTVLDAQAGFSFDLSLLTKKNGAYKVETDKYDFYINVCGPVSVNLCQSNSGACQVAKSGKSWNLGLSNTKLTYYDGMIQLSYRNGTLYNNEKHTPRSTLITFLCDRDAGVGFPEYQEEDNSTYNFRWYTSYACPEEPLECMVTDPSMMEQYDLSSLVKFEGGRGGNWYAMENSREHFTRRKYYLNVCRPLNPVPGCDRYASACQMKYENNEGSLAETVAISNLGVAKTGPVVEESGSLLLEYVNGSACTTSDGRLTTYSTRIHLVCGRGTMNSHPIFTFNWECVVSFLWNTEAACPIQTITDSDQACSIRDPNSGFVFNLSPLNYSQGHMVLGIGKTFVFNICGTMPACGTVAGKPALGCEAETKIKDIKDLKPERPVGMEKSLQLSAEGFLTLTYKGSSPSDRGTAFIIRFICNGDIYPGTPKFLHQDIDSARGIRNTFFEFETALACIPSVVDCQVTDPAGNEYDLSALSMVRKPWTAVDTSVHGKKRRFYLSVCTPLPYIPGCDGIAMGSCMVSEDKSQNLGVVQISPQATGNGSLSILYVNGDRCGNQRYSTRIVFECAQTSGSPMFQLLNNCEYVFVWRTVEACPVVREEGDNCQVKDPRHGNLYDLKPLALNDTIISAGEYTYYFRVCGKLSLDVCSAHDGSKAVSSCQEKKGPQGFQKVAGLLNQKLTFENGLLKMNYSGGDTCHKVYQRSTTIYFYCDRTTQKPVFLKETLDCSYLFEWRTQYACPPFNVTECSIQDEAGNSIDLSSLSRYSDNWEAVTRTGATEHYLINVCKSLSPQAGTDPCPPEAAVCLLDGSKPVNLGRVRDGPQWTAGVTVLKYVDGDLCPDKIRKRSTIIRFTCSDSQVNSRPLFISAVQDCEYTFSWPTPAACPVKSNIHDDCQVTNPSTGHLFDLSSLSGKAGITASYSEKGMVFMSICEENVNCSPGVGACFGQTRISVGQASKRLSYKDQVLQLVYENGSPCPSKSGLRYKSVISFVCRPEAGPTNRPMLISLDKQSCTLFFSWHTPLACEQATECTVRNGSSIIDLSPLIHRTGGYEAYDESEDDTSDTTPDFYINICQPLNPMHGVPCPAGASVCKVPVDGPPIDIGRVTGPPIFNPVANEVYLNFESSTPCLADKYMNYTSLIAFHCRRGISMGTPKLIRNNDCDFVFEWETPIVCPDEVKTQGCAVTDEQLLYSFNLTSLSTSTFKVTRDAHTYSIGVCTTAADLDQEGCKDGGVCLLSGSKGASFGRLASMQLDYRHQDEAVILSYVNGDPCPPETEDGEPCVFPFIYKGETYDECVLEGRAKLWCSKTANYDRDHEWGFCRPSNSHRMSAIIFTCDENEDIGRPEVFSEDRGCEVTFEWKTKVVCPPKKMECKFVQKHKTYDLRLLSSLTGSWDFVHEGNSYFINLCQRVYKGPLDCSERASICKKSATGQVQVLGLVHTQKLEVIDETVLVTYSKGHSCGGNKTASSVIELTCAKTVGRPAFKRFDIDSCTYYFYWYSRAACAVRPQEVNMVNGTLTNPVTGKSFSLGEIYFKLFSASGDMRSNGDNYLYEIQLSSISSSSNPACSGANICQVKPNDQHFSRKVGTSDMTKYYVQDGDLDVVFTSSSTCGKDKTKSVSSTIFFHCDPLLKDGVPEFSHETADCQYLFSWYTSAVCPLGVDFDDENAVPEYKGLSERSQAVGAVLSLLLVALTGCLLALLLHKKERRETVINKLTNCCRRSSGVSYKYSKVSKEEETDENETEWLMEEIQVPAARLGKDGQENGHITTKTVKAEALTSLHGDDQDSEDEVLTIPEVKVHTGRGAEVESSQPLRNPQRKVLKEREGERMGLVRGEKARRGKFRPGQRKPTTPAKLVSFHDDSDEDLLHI
T2 sequence (G3V824 36-2481): as above

Q: How did the “Inhibition of [3H]RA photolabeling/binding to M6P/IGF2R by nonradioactive competitor” value [1] turn out when `CC1=C(/C=C/C(C)=C/C=C/C(C)=C/C(=O)O)C(C)(C)CCC1` [RA, all-trans-retinoic acid] was run?
A: the radiolabel at the 300 kDa protein was lost; also recorded: inhibited the binding

Q: What about the “Inhibition of [3H]RA photolabeling/binding to M6P/IGF2R by nonradioactive competitor” value ([1]; listed as all-trans-retinoic acid) of the same compound?
A: abolished the labeling

Q: What about the “Photoaffinity labeling of protein by [3H]RA” value ([1]; incubation with [3H]RA followed by photolysis) of the same compound?
A: labeling of a doublet protein at 300 kDa; also recorded: intensively photolabeled

Q: And the “Increase of internalization of IGF-II” value (M6P/IGF-II receptor)?
A: 30-50%

Q: What about the “Cellular acid phosphatase activity” value [2] of the same compound?
A: induced a transient cellular accumulation of acid phosphatase

Q: And the “RA-induced cathepsin B translocation” value (P388D1 cells [3]; M6P/IGF2R-deficient P388D1 cells)?
A: No significant effect

Q: What about the “RA-induced cathepsin B translocation” value (P388D1 cells [3]; stably-transfected P388D1 cells overexpressing M6P/IGF2R) of the same compound?
A: remarkable cathepsin B translocation

Q: What about the “Apoptosis (FITC-annexin V staining, flow cytometry)” value (HL-60R cells) of the same compound?
A: significant increase in apoptosis

Q: What about the Growth rate (HL-60R cells) of the same compound?
A: remarkable reduction in growth rate

Q: What about the Cell morphology (P388D1 cells [4]; P388D1 cells overexpressing M6P/IGF2R) of the same compound?
A: remarkable changes in cell morphology

Q: And the Cell morphology (P388D1 cells [4]; control P388D1 cells transformed with vector alone)?
A: no such changes

Q: And the “Cell growth (proliferation)” value (P388D1 cells [4]; 1 μM RA, P388D1 cells overexpressing M6P/IGF2R)?
A: grew much more slowly

Q: What about the “Apoptotic cells (fluorescence staining of fragmented DNA)” value (P388D1 cells [4]; RA, overexpressing P388D1 cells vs controls) of the same compound?
A: much higher number of apoptotic cells

Q: And the “Effects of RA on endocytosis, IGF-II internalization and acid phosphatase in receptor-negative cells” value (P388D1 cells [5])?
A: not observed
